In this experiment the target is T1, soluble epoxide hydrolase (sEH) (Homo sapiens, UniProt P34913).
T1 sequence (P34913 1-555): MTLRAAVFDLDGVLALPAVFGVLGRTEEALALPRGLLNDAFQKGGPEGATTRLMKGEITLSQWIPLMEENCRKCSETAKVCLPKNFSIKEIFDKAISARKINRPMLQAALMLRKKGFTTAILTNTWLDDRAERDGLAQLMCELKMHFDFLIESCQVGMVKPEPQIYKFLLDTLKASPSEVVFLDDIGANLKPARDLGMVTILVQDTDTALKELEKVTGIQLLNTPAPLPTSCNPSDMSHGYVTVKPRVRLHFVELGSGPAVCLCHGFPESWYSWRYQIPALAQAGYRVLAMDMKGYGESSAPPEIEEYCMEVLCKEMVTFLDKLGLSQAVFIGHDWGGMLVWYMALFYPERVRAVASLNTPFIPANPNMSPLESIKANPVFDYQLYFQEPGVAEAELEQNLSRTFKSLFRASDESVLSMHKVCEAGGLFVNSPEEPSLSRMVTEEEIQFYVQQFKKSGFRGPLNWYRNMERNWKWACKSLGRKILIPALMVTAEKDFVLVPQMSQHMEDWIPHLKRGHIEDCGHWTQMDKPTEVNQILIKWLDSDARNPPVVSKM
The experiment can be described thus: in vitro biochemical activity test, sEH enzyme inhibition with EET substrate (LC-MS). To be noted: 90 min pre-incubation at room temperature, 60 min reaction. On the procedure: This example relates to the relationship between the structure and activity of (hetero)aryl imidazole compounds containing an aromatic substituent. Specifically, the biochemical activity of the (hetero)aryl imidazole compounds containing an aromatic substituent described in Example 1 as sEH enzyme inhibitors was evaluated by in vitro activity test experiments.
The experimental procedures for evaluating in vitro biochemical activity were described below.
The substrate used in the evaluation experiment was epoxyeicosatrienoic acid (EET). The solutions used in the evaluation experiments were Bis/Tris HCl 25 mM pH 7.0, Bis/Tris HCl 25 mM pH 7.0 containing 0.1 mg/mL BSA was used as buffer A, and Bis/Tris HCl 25 mM pH 7.0 containing 36.3 mM ZnSO4 was used as buffer B.
The specific steps of the evaluation experiment were as follows. 79 μL of buffer A was added to each well in a black 96-well plate and then 1 μL solution of the aromatic substituent-containing (hetero)aryl imidazole compound was added. Then, 10 μL sEH (1 μM) buffer A solution was added to the wells. After pre-incubation at room temperature for 90 min, 10 μL EET (10 μM) buffer A solution was added to trigger the reaction. After the mixture was allowed to react […] for 60 min, 15 μL buffer B and 180 μL acetonitrile were added to quench the reaction, followed by high-speed centrifugation and filtration for later use.
LC-MS was used to detect the concentration of EET in the samples. The final IC50 was calculated based on three independent experiments using Graphpad Prism software.

Our source for the IC50 values is patent US20260297065A1, “AROMATIC SUBSTITUENT-CONTAINING (HETERO) ARYL-IMIDAZOLE COMPOUND, AND PREPARATION METHOD THEREFOR AND USE THEREOF” (OPEN SOURCE THERAPEUTICS, priority 2022, published 2026).

As for `CN(C)S(=O)(=O)c1ccc(-c2nc3cc(-c4cncnc4C(F)(F)F)c(F)cc3[nH]2)cc1` [Compound 33, 4-(5-fluoro-6-(4-(trifluoro-methyl)pyrimid-5-yl)-1H-benzo [d]imidazol-2-yl)-N,N-dimeth-ylbenzenesulfonamide], 150 pM corresponded to half-maximal inhibition (IC50).

`CC(C)c1nc(N)ncc1-c1cc2nc(-c3ccc(S(=O)(=O)N(C)C)cc3)[nH]c2cc1F` [Compound 34, 4-(6-(2-amino-4-isopropyl-pyrimid-5-yl)-5-fluoro-1H-benzo[d]imidazol-2-yl)-N,N-dimethylbenzenesulfonamide] came in with a half-maximal inhibitory concentration (IC50) of 58 pM.

The compound `Cc1nc(N)ncc1-c1cc2nc(-c3ccc(S(=O)(=O)N(C)C)cc3)[nH]c2c(Cl)c1F` [Compound 35, 4-(6-(2-amino-4-methylpyr-imid-5-yl)-4-chloro-5-fluoro-1H-benzo[d]imidazol-2-yl)-N,N-dimethylbenzenesulfon-amide] yielded an IC50 of 45 pM.

As for `Cc1cc(F)ncc1-c1cc2nc(-c3ccc(S(N)(=O)=O)cc3)[nH]c2cc1F` [Compound 36, 4-(5-fluoro-6-(6-fluoro-4-methylpyridin-3-yl)-1H-benzo [d]imidazol-2-l)benzenesulfon-amide], the midpoint of inhibition, the IC50, lay at 540 pM.

Regarding `CNS(=O)(=O)c1ccc(-c2nc3cc(-c4cnc(F)cc4C)c(F)cc3[nH]2)cc1` [Compound 37, 4-(5-fluoro-6-(6-fluoro-4-methylpyridin-3-yl)-1H-benzo [d]imidazol-2-yl)-N-methyl-benzenesulfonamide], the IC50 was determined as 380 pM.

Take `CN(C)S(=O)(=O)c1ccc(-c2nc3cc(-c4ccnn4C(C)(C)F)c(F)cc3[nH]2)cc1` [Compound 38, 4-(5-fluoro-6-(1-(2-fluoropro-pan-2-yl)-1H-pyrazol-5-yl)-1H-benzo[d]imidazol-2-yl)-N,N-dimethylbenzenesulfon-amide]: the IC50 came to 45 pM.

Compound `COc1cc(C)c(-c2cc3nc(-c4ccc(S(=O)(=O)N(C)C)cc4)[nH]c3cc2F)cn1` [Compound 39, 4-(5-fluoro-6-(6-methoxy-4-methylpyridin-3-yl)-1H-benzo [d]imidazol-2-yl)-N,N-dimeth-ylbenzenesulfonamide] gave an IC50 of 88 pM.

`CN(C)S(=O)(=O)c1ccc(-c2nc3cc(-c4cnc(N)cc4Cl)c(F)cc3[nH]2)cc1` [Compound 40, 4-(6-(6-amino-4-chloropyr-idin-3-yl)-5-fluoro-1H-benzo [d]imidazol-2-yl)-N,N-dimeth-ylbenzenesuIfonamide] registered a half-inhibitory concentration (IC50) of 63 pM. The IC50 values of the last two compounds are within 1.5-fold of each other.

In turn, `Cc1[nH]c(=O)ccc1-c1cc2nc(-c3ccc(S(=O)(=O)N(C)C)cc3)[nH]c2cc1F` [Compound 41, 4-(5-fluoro-6-(2-methyl-6-oxo-1,6-dihydropyridin-3-yl)-1H-benzo[d]imidazol-2-yl)-N,N-dimethylbenzenesulfon-amide] had an IC50 of 230 pM.

As to `Cc1nc(N)ncc1-c1cc2[nH]c(-c3ccc(C(F)(F)F)cc3)nc2cc1F` [Compound 42, 5-(5-fluoro-2-(4-(trifluoro-methyl)phenyl)-1H-benzo[d]imidazol-6-yl)-4-methylpyrim-idine-2-amine], half-maximal inhibition (IC50) was put at 140 pM.

Turning to `Cc1nc(N)ncc1-c1cc2[nH]c(-c3ccc(C(F)F)cc3)nc2c(F)c1F` [Compound 44, 5-(2-(4-(difluoromethyl)phen-yl)-4,5-difluoro-1H-benzo[d]imidazol-6-yl)-4-methylpyr-imidine-2-amine], the IC50 came to 96 pM.

The compound `Cc1cc(N)ncc1-c1cc2[nH]c(-c3ccc(S(=O)(=O)N(C)C)cc3)nc2c(F)c1F` [Compound 45, 4-(6-(6-amino-4-methylpyr-idin-3-yl)-4,5-difluoro-1H-benzo[d]imidazol-2-yl)-N,N-dimethylbenzenesulfonamide] registered an IC50 of 33 pM.

`Nc1ncc(-c2cc3[nH]c(-c4ccc(C(F)F)cc4)nc3c(F)c2F)c(C(F)F)n1` [Compound 46, 4-(difluoromethyl)-5-(2-(4-(difluoromethyl)phenyl)-4,5-difluoro-1H-benzo[d]imid-azol-6-yl)pyrimidine-2-amine] gave an IC50 of 42 pM.

Turning to `CC(C)c1ncncc1-c1cc2[nH]c(-c3ccc(S(=O)(=O)N(C)C)cc3)nc2cc1F` [Compound 47, 4-(5-fluoro-6-(4-isopropyl-pyrimid-5-yl)-1H-benzo[d]imidazol-2-yl)-N,N-dimethyl-benzenesulfonamide], half-maximal inhibition (IC50) required 36 pM.

With `CN(C)S(=O)(=O)c1ccc(-c2nc3cc(F)c(-c4cnc(N)nc4C(F)F)cc3[nH]2)cc1` [Compound 51, 4-(6-(4-(difluoromethyl)-2-aminopyrimid-5-yl)-5-fluoro-1H-benzo[d]imidazol-2-yl)-N,N-dimethylbenzenesulfon-amide], it took 16 pM to reach half-maximal inhibition (IC50).

Turning to `Cc1ccncc1-c1cc2[nH]c(-c3ccc(S(=O)(=O)N(C)C)cc3)nc2cc1F` [Compound 55, 4-(6-(4-methylpyridin-3-yl)-5-fluoro-1H-benzo[d]imidazol-2-yl)-N,N-dimethylbenzene-sulfonamide], the half-inhibitory concentration (IC50) is 100 pM. This IC50 is about 6.2-fold higher than that of the compound before.

Compound `CN(C)S(=O)(=O)c1ccc(-c2nc3c(F)c(F)c(-c4cnc(N)cc4Cl)cc3[nH]2)cc1` [Compound 57, 4-(6-(6-amino-4-chloropyri-din-3-yl)-4,5-difluoro-1H-benzo[d]imidazol-2-yl)-N,N-dimethylbenzenesulfonamide] displayed an IC50 of 36 pM. Compared with the last compound, the IC50 is about 2.8-fold lower.

`CC(C)n1nc(N)cc1-c1cc2[nH]c(-c3ccc(S(=O)(=O)N(C)C)cc3)nc2cc1F` [Compound 60, 4-(6-(1-isopropyl-3-amino-1H-pyrazol-5-yl)-5-fluoro-1H-benzo[d]imidazol-2-yl)-N,N-dimethylbenzenesulfonamide] registered a concentration for half-maximal inhibition (IC50) of 57 pM.

On to `Nc1ncc(-c2cc3[nH]c(-c4ccc(C(F)(F)F)cc4)nc3c(F)c2F)c(C(F)F)n1` [Compound 68, 5-(2-(4-(trifluoromethyl)phen-yl)-4,5-difluoro-1H-benzo[d]-imidazol-6-yl)-4-(difluoro-methyl)pyrimidine-2-amine], for which the IC50 is 89 pM.

With `CC(C)n1ccnc1-c1cc2[nH]c(-c3ccc(C(F)(F)F)cc3)nc2c(F)c1F` [Compound 72, 2-(4-(trifluoromethyl)phenyl)-6-(1-isopropyl-1H-imidazol-2-yl)-4,5-difluoro-1H-benzo[d] imidazole], the midpoint of inhibition, the IC50, lay at 770 pM.

As for `Fc1c(-c2cnc(N3CCOCC3)nc2C(F)F)cc2[nH]c(-c3ccc(C(F)(F)F)cc3)nc2c1F` [Compound 74], the IC50 amounted to 170 pM.

The compound `Fc1c(-c2ccnn2C2CC2)cc2[nH]c(-c3ccc(C(F)(F)F)cc3)nc2c1F` [Compound 75, 2-(4-(trifluoromethyl)phenyl)-6-(1-cyclopropyl-1H-pyrazol-5-yl)-4,5-difluoro-1H-benzo [d]imidazole] gave a half-inhibitory concentration (IC50) of 81 pM.

`Cc1nn(C(F)F)cc1-c1cc2[nH]c(-c3ccc(C(F)(F)F)cc3)nc2c(F)c1F` [Compound 76, 2-(4-(trifluoromethyl)phenyl)-6-(3-methyl-1-(difluorometh-yl)-1H-pyrazol-4-yl)-4,5-difluoro-1H-benzo[d]imidazole] returned a 50% inhibitory concentration (IC50) of 81 pM. This lies in the picomolar range.

For the compound `Nc1cc(C(F)F)c(-c2cc3[nH]c(-c4ccc(C(F)(F)F)cc4)nc3c(F)c2F)cn1` [Compound 77, 2-(4-(trifluoromethyl)phenyl)-6-(4-(difluoromethyl)-6-amino-pyridin-3-yl)-4,5-difluoro-1H-benzo[d]imidazole], the IC50 amounted to 47 pM.

The IC50 is the concentration that gives 50% inhibition.
